From ChEMBL document CHEMBL1201862, “PubChem BioAssay data set” (2004)
The source made the active and inactive calls.

Columns and labels:
[1] = biological target: T1, Dual specificity protein phosphatase 6 (Rattus norvegicus, UniProt Q64346); format: functional;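 note: confirmatory in vitro dose-response testing of MKP-3 inhibition; recombinant His-tagged MKP-3 made in E. coli BL21 with OMFP substrate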
Genome polyprotein = Genome polyprotein (dengue virus type 2, UniProt P29990); assay: Dengue-2 NS5 methyltransferase inhibitors, primary screen, biochemical, confirmation dose response (AID 588689); format: functional
[2] = biological target: T2, Tyrosine-protein phosphatase non-receptor type 7 (Homo sapiens, UniProt P35236); assay: redox-dependent HePTP inhibition, mechanism study, biochemical, fluorescence (AID 2068); format: functional
T2 sequence (P35236 whole entry): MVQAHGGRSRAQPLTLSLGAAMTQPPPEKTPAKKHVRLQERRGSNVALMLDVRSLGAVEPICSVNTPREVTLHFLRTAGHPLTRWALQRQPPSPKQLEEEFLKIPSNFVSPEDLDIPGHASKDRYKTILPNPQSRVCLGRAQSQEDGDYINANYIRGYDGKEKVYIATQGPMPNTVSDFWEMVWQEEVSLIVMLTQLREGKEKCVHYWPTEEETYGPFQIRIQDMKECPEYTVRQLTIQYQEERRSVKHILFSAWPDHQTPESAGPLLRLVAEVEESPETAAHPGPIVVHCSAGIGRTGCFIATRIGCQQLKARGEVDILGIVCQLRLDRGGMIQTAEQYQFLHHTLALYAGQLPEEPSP

[3] = biological target: NAD-dependent protein deacylase sirtuin-5, mitochondrial (Homo sapiens, UniProt Q9NXA8); assay: SIRT5 desuccinylase inhibitors, dose response, biochemical, fluorescence imaging, cherry-pick, set 5 (AID 720591);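 note: desuccinylation of succinyl peptide AMC substrate read as fluorescence after trypsin release; potency of inhibitors that lower fluorescence and may act on trypsin instead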
[4] = biological target: T3, Dual specificity protein phosphatase 3 (Homo sapiens, UniProt P51452); assay: VHR1 phosphatase inhibitors, biochemical (AID 1878)
[5] = biological target: T1, Dual specificity protein phosphatase 6; assay: MKP-3 phosphatase inhibitors, primary screen, biochemical, rat enzyme, in vitro (AID 425)
[6] = biological target: T3, Dual specificity protein phosphatase 3; assay: VHR1 phosphatase inhibitors, primary screen, biochemical, absorbance, uHTS (AID 1654)
[7] = biological target: DNA (cytosine-5)-methyltransferase 1 (Homo sapiens, UniProt P26358); assay: DNMT1 methyltransferase inhibitors, confirmation, biochemical, fluorescent molecular beacon (AID 602386); format: functional
Aminopeptidase N = biological target: T4, Aminopeptidase N (Plasmodium falciparum FcB1/Columbia, UniProt O96935); assay: P. falciparum M1AAP inhibitors, biochemical, fluorogenic H-Leu-NHMec substrate, 1536-well (AID 1445); parameters: species or system Plasmodium falciparum 3D7, 3D7
T4 sequence (O96935 whole entry): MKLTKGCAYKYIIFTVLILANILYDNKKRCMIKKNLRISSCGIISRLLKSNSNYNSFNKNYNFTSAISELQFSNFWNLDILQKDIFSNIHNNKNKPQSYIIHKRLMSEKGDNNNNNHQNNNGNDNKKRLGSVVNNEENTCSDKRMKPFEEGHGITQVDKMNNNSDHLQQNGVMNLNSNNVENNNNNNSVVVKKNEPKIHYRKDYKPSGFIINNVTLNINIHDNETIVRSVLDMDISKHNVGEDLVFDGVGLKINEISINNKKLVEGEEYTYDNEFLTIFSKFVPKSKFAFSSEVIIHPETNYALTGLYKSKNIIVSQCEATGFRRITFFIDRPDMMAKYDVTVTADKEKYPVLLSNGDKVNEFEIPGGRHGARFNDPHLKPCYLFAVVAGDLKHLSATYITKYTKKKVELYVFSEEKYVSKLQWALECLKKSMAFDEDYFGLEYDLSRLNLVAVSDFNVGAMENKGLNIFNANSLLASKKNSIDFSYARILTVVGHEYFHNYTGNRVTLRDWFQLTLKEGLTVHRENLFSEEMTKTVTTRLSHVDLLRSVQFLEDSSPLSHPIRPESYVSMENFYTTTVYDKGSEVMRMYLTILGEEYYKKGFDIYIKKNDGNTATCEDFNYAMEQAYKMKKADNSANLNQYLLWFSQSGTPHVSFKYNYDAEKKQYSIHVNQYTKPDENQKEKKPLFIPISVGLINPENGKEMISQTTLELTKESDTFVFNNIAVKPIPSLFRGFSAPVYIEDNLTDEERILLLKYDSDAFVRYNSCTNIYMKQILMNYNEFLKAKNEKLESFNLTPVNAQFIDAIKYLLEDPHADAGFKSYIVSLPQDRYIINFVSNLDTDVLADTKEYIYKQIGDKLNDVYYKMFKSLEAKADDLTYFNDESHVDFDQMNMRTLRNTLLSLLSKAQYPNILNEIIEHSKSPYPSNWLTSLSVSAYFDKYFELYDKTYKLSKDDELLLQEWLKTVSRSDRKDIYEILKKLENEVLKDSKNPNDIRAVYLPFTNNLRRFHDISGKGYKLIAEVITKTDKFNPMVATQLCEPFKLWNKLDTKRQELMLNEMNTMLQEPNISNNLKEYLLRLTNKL

[8] = biological target: T3, Dual specificity protein phosphatase 3; assay: SAR VHR1 Fluorescent Assay for In Vitro dose response studies. [Related pubchem assays (depositor defined):AID1654, AID1661, AID1878, AID1992, AID2004, AID2070, AID2085]; format: functional
[9] = biological target: T3, Dual specificity protein phosphatase 3; assay: SAR VHR1 absorbance Assay for In Vitro dose response studies. [Related pubchem assays (depositor defined):AID1654, AID1661, AID1878, AID1992, AID2004]
A-375 [10] = assay: MITF: Counter assay: A375 proliferation Measured in Cell-Based System Using Plate Reader - 2084-03_Inhibitor_Dose_DryPowder_Activity. [Related pubchem assays (depositor defined):AID488944]; format: functional; settings: Homo sapiens
[11] = biological target: T5, Microphthalmia-associated transcription factor (Homo sapiens, UniProt O75030); assay: TRPM1 promoter luciferase signal decrease, dose response, MITF inhibitor project, cell-based, SK-MEL-5, cherry-picked, set 3 (AID 493073); format: functional
T5 sequence (O75030 whole entry): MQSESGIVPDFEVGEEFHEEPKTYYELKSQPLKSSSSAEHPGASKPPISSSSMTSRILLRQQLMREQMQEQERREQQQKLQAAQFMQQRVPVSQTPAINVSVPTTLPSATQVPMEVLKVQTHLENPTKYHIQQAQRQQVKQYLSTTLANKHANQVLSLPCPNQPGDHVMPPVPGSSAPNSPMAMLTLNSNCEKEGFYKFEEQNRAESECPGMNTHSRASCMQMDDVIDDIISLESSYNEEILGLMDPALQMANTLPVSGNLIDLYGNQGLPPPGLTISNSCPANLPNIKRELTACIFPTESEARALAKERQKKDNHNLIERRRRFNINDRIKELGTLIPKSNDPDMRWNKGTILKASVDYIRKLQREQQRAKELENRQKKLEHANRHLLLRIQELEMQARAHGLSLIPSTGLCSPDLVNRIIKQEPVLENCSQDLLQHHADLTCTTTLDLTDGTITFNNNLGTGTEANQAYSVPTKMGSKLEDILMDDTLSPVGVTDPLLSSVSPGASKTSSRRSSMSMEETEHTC

[12] = cytotoxicity in HEK-293T NF-kB-Luc cells, dose response, cytotoxicity control for B/T-cell NF-kB inhibitor project, cell-based, uHTS hits (AID 489019); format: functional;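 note: IC50 reflects cytotoxicity as loss of cell viability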
Jurkat = assay: antigen receptor-induced NF-kB inhibitors, dose response, Jurkat, luciferase reporter, luminescence, B- and T-cell (AID 489004); format: functional, cell-based; settings: Homo sapiens;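 note: NF-kB luciferase reporter Jurkat cells stimulated with PMA plus ionomycin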
A-375 [13] = assay: A375 melanoma cell viability reduction, dose response, counter-screen for MITF modulator project, cherry-pick samples, set 2 (AID 540335); format: functional, cell-based; settings: Homo sapiens
[14] = biological target: Voltage-gated inwardly rectifying potassium channel KCNH2 (Homo sapiens, UniProt Q12809); assay: hERG protection from proarrhythmic block, potency, dose response, cell-based, thallium flux (AID 2121); format: ADME
Mu-type opioid receptor = Mu-type opioid receptor (Homo sapiens, UniProt P35372); assay: (§1) Counterscreen for agonists of heterodimerization of the mu 1 (OPRM1) and delta 1 (OPRD1) opioid receptors: Luminescence-based cell-based high throughput dose response assay to identify agonists of OPRM1 homodimerization.; format: functional
HEK293 = assay: inhibitors of LMP1-driven NF-kB reporter, dose response, cell-based, HEK293, luciferase, cherry-pick (AID 588343); format: functional; settings: Homo sapiens
[15] = biological target: 5-hydroxytryptamine receptor 5A (Homo sapiens, UniProt P47898); assay: Counterscreen for agonists of OPRM1-OPRD1 heterodimerization: luminescence-based cell-based high throughput dose response assay to identify agonists of 5-hydroxytryptamine (serotonin) 5A receptor (HTR5A). [Related pubchem assays (depositor defined):AID504326, AID504355, AID504692, AID504904, AID504905]; format: functional
[16] = biological target: Delta-type opioid receptor (Homo sapiens, UniProt P41143); assay: as §1, with “of OPRD1” for “of OPRM1”, “homodimerization. [Related pubchem assays (depositor defined):AID504326, AID504355, AID504692, AID504904, AID504905]” for “homodimerization.”; format: functional
Delta-type opioid receptor, sequence (P41143 whole entry): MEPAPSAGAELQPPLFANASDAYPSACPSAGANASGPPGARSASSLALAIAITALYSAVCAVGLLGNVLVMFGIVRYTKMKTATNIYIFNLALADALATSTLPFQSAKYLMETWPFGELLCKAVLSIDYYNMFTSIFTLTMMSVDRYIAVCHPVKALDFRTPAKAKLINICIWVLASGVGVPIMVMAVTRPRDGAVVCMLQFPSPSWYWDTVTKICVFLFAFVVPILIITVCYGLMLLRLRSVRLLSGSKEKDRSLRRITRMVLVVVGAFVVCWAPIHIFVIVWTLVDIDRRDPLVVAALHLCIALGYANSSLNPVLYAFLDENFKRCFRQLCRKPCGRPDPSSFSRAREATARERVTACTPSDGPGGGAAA

T3 sequence (P51452 whole entry): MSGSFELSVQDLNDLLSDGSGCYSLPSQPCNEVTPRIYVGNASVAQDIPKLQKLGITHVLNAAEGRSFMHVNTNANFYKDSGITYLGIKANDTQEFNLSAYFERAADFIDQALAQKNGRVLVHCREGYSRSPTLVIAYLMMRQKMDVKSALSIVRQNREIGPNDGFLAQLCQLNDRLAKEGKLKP
T1 sequence (Q64346 whole entry): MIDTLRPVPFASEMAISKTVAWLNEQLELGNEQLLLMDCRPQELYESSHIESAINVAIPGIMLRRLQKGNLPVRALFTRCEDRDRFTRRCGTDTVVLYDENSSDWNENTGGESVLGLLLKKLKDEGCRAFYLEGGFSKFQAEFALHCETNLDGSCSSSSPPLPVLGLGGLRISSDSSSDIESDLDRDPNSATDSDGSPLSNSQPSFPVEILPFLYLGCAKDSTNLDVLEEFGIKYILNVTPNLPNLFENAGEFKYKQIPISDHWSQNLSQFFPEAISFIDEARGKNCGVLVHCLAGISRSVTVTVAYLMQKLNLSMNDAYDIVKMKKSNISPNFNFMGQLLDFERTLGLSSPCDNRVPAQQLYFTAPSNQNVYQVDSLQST
Genome polyprotein, sequence (P29990 2492-3391 limits assumed): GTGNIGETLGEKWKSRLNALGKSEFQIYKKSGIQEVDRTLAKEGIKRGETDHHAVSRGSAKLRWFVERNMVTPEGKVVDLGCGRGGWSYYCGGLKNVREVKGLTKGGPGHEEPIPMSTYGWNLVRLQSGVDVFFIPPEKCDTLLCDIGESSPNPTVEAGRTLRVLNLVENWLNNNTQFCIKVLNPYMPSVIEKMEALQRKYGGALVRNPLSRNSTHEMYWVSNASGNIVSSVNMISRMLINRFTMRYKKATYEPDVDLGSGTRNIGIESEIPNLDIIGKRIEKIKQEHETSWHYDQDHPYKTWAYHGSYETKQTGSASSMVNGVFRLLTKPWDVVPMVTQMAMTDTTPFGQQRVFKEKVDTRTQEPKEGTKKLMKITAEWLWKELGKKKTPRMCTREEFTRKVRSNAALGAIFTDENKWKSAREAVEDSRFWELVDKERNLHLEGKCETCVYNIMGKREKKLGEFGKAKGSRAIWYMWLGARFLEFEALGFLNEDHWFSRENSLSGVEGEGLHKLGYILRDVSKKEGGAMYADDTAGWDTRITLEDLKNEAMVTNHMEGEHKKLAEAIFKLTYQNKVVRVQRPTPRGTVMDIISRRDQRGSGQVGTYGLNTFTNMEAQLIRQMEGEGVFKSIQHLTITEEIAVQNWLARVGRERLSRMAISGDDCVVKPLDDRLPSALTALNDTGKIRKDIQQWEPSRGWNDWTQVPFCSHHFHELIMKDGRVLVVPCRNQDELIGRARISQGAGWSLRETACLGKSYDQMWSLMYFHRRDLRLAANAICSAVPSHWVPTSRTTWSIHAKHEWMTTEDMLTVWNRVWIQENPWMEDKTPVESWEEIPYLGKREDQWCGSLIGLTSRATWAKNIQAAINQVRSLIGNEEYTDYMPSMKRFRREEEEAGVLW
Mu-type opioid receptor, sequence (P35372 whole entry): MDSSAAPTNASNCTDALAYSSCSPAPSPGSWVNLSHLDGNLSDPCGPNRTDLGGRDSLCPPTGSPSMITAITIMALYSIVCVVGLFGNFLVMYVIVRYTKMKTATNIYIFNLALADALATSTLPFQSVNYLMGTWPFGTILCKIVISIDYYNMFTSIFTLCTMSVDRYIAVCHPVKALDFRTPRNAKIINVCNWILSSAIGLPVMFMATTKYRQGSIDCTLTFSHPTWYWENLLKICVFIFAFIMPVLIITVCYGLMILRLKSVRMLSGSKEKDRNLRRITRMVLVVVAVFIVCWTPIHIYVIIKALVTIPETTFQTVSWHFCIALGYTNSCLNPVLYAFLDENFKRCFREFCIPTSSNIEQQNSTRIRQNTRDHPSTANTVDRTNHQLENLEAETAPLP
5-hydroxytryptamine receptor 5A, sequence (P47898 whole entry): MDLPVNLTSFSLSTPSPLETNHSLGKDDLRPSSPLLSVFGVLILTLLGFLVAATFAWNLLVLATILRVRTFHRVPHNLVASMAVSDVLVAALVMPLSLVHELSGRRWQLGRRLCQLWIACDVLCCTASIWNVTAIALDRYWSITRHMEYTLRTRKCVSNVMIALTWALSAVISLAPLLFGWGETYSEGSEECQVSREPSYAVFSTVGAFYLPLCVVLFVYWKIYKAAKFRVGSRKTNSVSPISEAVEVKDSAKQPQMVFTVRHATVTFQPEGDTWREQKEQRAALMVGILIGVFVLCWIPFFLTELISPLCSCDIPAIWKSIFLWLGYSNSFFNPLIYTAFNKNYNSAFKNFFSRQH
NAD-dependent protein deacylase sirtuin-5, mitochondrial, sequence (Q9NXA8 whole entry): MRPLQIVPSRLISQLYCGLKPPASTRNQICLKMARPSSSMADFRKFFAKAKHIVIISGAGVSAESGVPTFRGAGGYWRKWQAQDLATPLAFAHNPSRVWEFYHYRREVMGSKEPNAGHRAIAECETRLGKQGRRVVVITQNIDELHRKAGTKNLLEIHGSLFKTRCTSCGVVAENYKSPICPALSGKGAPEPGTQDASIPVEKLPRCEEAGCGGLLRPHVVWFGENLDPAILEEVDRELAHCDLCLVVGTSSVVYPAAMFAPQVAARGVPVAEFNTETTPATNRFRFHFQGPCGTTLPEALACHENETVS
Voltage-gated inwardly rectifying potassium channel KCNH2, sequence (Q12809 whole entry): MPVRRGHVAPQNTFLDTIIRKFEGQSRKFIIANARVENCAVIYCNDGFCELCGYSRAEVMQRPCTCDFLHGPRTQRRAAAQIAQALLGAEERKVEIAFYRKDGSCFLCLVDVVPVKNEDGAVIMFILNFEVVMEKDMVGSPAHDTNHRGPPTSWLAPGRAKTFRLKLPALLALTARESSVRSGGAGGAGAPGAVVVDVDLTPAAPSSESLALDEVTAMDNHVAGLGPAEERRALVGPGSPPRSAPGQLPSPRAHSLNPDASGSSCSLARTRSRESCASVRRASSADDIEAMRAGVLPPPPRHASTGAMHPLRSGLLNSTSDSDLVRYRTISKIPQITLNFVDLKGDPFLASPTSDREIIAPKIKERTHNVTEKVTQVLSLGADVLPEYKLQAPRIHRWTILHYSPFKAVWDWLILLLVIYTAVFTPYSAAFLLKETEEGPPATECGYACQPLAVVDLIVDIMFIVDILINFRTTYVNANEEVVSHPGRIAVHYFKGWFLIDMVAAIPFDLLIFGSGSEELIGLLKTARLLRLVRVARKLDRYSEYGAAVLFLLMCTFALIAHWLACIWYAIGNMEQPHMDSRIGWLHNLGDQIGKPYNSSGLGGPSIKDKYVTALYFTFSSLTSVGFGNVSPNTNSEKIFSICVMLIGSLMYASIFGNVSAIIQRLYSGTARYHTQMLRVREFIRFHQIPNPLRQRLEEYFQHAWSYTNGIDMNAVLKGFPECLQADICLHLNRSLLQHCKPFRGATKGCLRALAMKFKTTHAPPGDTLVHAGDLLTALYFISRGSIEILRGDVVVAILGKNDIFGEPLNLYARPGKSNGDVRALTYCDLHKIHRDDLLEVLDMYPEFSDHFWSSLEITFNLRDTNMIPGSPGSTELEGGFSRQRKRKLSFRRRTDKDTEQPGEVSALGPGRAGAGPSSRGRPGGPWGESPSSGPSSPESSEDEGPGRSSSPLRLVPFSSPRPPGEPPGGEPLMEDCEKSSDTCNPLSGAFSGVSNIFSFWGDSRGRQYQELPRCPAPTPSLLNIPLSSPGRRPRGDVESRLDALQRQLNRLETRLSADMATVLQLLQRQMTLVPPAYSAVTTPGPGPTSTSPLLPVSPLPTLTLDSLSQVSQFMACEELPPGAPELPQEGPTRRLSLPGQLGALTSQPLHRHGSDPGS

Compound: O=C(O)CSc1cc(C(=O)c2ccccc2O)cn2c(=O)c3c4c(sc3nc12)CCCC4
- IC50 [1]: > 99 µM (inactive)
- IC50 (Genome polyprotein): 94.1 µM (active)
- IC50 [2]: 0.576 µM (active)
- AC50 [3]: 5.07 µM (active)
- IC50 [4]: 7.42 µM (active)
- IC50 [5]: > 158 µM (not active)
- IC50 [6]: 19 µM (active)
- IC50 [7]: 14.1 µM (active)
- IC50 (Aminopeptidase N): 19.5 µM (active)
- IC50 [8]: 13.5 µM (active)
- IC50 [9]: 2.62 µM (active)

Compound: CCOc1ccc(/C=C2\SC(=S)N(CCC(=O)O)C2=O)cc1
- AC50 (A-375 [10]): > 35 µM (active)
- AC50 [11]: 0.577 µM (active)
- IC50 [12]: > 80 µM (inactive)
- IC50 (Jurkat): < 0.16 µM (active)
- AC50 (A-375 [13]): > 35 µM (active)

Compound: Cc1ccccc1Cn1c(O)c(N=NC(S)=Nc2ccccc2F)c2ccccc21
- EC50 [14]: 0.87 µM (active)
- EC50 (Mu-type opioid receptor): > 92.5 µM (inactive)
- AC50 (HEK293): 3.18 µM (active)
- EC50 [15]: > 92.5 µM (inactive)
- EC50 [16]: > 92.5 µM (inactive)
